Results published in patent US5656662A, “Synthesis of optically pure 4-alkenyl- or 4-alkanyl-2-hydroxytetronic acids” (The Ohio State University Research Foundation, priority 1995, dated 1997).

Assays:
Type in all cases: cell-based
[1] = system: IL-1β; assay: IL-1β secretion from purified human monocytes; parameters: key to EFFECT on IL1β: NE: No effect; INHIB: Inhibition; STIM: Stimulation; IC40: 40% Inhibitory Concentration; EC50: 50% Effective Concentration; TC: Tolerated Concentration; IA: Interferes with Assay
Procedure: This assay determines the effect of test compounds on the secretion of IL-1β from purified human monocytes.
(§1) Compounds are tested for their ability to downregulate the production of IL-1β in activated monocytes, or upregulate secretion of IL-1β in unstimulated monocytes. Test compounds are incubated for sixteen hours with purified human monocytes at four dilutions over a range of three log10 concentrations. Where appropriate, lipopolysaccharide (LPS) is used to stimulate the monocytes.
The level of IL-1β in the resultant supernatants is quantitated in a solid phase Enzyme-linked Immunoassay (EIA) performed in a 96 well format. IL-1β present in the samples is captured by a specific monoclonal antibody immobilized on the well, and probed with an anti-IL-1β polyclonal antibody conjugated to horseradish peroxidase, followed by an appropriate substrate. The levels of IL-1β are determined by interpolation of the resultant color change in the substrate from a standard curve. All supernatants are tested in duplicate with controls and standards.
as §1, with “This assay determines the effect of test compounds on the secretion of IL-1β from purified human monocytes. Compounds” for “Compounds”

[2] = system: PGE2; assay: PGE2 production by purified human monocytes; parameters: key to EFFECT on PGE2: NE: No effect; INHIB: Inhibition; STIM: Stimulation; IC40: 40% Inhibitory Concentration; EC50: 50% Effective Concentration; TC: Tolerated Concentration; IA: Interferes with Assay
Procedure: This procedure measures the ability of test compounds to modulate the amount of PGE2 produced by purified human monocytes. Compounds are tested for their ability to downregulate the secretion of PGE2 from activated monocytes, or upregulate secretion of PGE2 from unstimulated monocytes. Test compounds are incubated for ninety minutes with purified human monocytes at four dilutions over a range of three log10 concentrations. Where appropriate, zymosan is used to stimulate the monocytes.
The level of PGE2 in the resultant supernatants is quantitated by immunoassay performed in a 96 well format. PGE2 levels modulated by unknown compounds are determined by interpolation from a standard curve. All compounds are tested in duplicate with controls and standards.

[3] = system: normal human mononuclear cells; assay: Two Way Mixed Lymphocyte Reaction; parameters: key: NE: No effect; INHIB: Inhibition; STIM: Stimulation; IC40: 40% Inhibitory Concentration; EC50: 50% Effective Concentration; TC: Tolerated Concentration; IA: Interferes with Assay
Procedure: The purpose of this procedure is to determine the effect of test compounds on Mixed Lymphocyte Reaction and Mitogen-Induced Proliferation of normal human mononuclear cells.
Procedure for Two Way Mixed Lymphocyte Reaction: PBMNC from two different donors are added to a 96-well cell culture plate. Four dilutions of test compounds, over a range of three log10 in quadruplicate, along with negative and inhibitory controls are then added to the plate and incubated for six days. Cultures are subsequently pulsed, harvested, and counted as above.

With `CCCCCCCCCCCCCC/C=C\CC[C@@H]1OC(=O)C(O)=C1O` [(S)-3,4-Dihydroxy-5-[(Z)-3-octadecenyl]-2(5H)-furanone] the IC40 ([1]; Homo sapiens, Monocyte, 16 h, STIMULATED, INHIB, 40% Inhibitory Concentration, read-out: IC40, IL1β) was 50 µM, the “EFFECT on IL1β” value ([1]; STIMULATED) was “INHIB” and the “EFFECT on IL1β” value ([1]; UNSTIMULATED) was “NE”. For the same compound, the EC50 ([2]; Homo sapiens, Monocyte, STIMULATED, INHIB) was 2 µM, the “EFFECT on PGE2” value ([2]; STIMULATED) was “INHIB” and the “EFFECT on PGE2” value ([2]; UNSTIMULATED) was “NE”. For the same compound, the “EFFECT on MLR” value [3] was “NE”.
